BindingDB's records for patent US11760761 (Aligos Therapeutics, 2023)

Each molecule was assayed against Programmed cell death 1 ligand/protein 1 (Homo sapiens, UniProt Q9NZQ7) (assay: PDL1/PD1 Binding Assay).
Procedure: Compounds to be tested were serially diluted in DMSO, and further diluted in assay buffer (25 mM Hepes pH 7.4, 150 mM NaCl, 0.005% Tween 20, BSA 0.01%). Diluted compounds were added to the wells with final concentration of DMSO at 1%. PDL1-6×His protein was added to the wells, mixed well with compound. The plates were incubated for 30 min at room temperature. PD1-Fc-Avi-Biotin protein was added to the wells. Final concentration of PDL1 and PD1 protein is 0.3 nM and 2.5 nM, respectively. After a binding time of 30 min at room temperature, Anti-6×His Acceptor beads (final concentration 20 ug/ml) were added to the wells, and the incubation continued for 1 h. Streptavidin Donor beads (final concentration 20 ug/mL) were added at reduced light. The plates were sealed with foil and incubated in the dark for additional 1 h or overnight before reading on an Envision reader.

Chain of Programmed cell death 1 ligand/protein 1 (Q9NZQ7 whole entry): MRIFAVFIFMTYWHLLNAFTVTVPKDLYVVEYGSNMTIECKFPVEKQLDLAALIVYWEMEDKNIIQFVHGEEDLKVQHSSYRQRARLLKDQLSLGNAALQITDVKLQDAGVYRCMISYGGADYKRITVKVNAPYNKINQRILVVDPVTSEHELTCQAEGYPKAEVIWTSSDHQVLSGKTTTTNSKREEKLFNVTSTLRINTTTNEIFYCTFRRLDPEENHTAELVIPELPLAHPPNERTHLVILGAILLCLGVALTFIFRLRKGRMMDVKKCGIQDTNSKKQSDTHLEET
Chain of Programmed cell death 1 ligand/protein 1 (Q15116 whole entry, further chain): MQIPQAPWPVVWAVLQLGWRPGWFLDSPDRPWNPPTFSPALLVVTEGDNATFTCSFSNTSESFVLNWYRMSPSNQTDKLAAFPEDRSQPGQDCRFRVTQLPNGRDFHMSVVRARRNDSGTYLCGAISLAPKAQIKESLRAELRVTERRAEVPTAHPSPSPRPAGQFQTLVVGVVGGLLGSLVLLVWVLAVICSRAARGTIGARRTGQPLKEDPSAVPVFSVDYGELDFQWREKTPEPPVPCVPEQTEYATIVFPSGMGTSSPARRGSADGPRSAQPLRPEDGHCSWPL

| Structure (SMILES) | IC50 |
| --- | --- |
| COc1nc(-c2cccc(-c3cccc(-c4cc5c(c(OC)n4)[C@@H](NC[C@@H]4CCC(=O)N4)CC5)c3Cl)c2Cl)cnc1CN1CC2(C1)CN(C(C)=O)C2 [US11760761, Compound D-1] | < 10 nM |
| COc1nc(-c2cccc(-c3cccc(-c4cc5c(c(OC)n4)[C@@H](NC[C@@H]4CCC(=O)N4)CC5)c3Cl)c2Cl)cnc1CN1CC2(CCC(=O)N2)C1 [US11760761, Compound C-1] | < 10 nM |
| COc1nc(-c2cccc(-c3cccc(-c4cc5c(c(OC)n4)CCN(CC(=O)O)C5)c3Cl)c2Cl)cnc1CN1CC(O)C1 [US11760761, Compound J-1] | < 10 nM |
| COc1cc(-c2cccc(-c3cccc(-c4cnc(CN5CC6(CCC(=O)N6)C5)c(OC)n4)c3Cl)c2Cl)cc2c1[C@@H](NCC(=O)O)CC2 [US11760761, Compound B-1] | < 10 nM |
| COc1nc(-c2cccc(-c3cccc(-c4cc5c(c(OC)n4)CCN(C[C@@H]4CCC(=O)N4)C5)c3Cl)c2Cl)cnc1CN1CC2(CCC(=O)N2)C1 [US11760761, Compound K-1] | < 10 nM |
| COc1nc(-c2cccc(-c3cccc(-c4cc5c(c(OC)n4)[C@@H](NC[C@@H]4CCC(=O)N4)CC5)c3Cl)c2Cl)ccc1CNC[C@@H]1CCC(=O)N1 [US11760761, Compound E-1] | < 10 nM |
| COc1nc(-c2cccc(-c3cccc(-c4cc5c(c(OC)n4)[C@H](NC[C@@H]4CCC(=O)N4)CO5)c3Cl)c2Cl)ccc1CN1CC(OC)C1 [US11760761, Compound E-7] | < 10 nM |
| CCOC(=O)C1CN([C@H]2CCc3cc(-c4cccc(-c5cccc(-c6cnc(CN7CC(O)C7)c(OC)n6)c5Cl)c4Cl)nc(OC)c32)C1 [US11760761, Compound G-1] | < 10 nM |
| COc1nc(-c2cccc(-c3cccc(-c4cc5c(c(OC)n4)[C@H](NC[C@@H]4CCC(=O)N4)CO5)c3Cl)c2Cl)ccc1CNC[C@@H]1CCC(=O)N1 [US11760761, Compound E-6] | < 10 nM |
| COc1nc(-c2cccc(-c3cccc(-c4cc5c(c(OC)n4)C(N4CCC[C@@H](C(=O)O)C4)CC5)c3Cl)c2Cl)cnc1CN1CC(O)C1 (stereo not given in full) [US11760761, Compound F-1] | < 10 nM |
| CCOC(=O)CN1CCc2c(cc(-c3cccc(-c4cccc(-c5cnc(CN6CC(O)C6)c(OC)n5)c4Cl)c3Cl)nc2OC)C1 [US11760761, Compound I-1] | < 10 nM |
| COCCN1CCc2c(cc(-c3cccc(-c4cccc(-c5cnc(CN6CC7(CCC(=O)N7)C6)c(OC)n5)c4Cl)c3Cl)nc2OC)C1 [US11760761, Compound K-2] | < 10 nM |
| COc1nc(-c2cccc(-c3cccc(-c4cc5c(c(OC)n4)[C@@H](NC[C@@H]4CCC(=O)N4)CC5)c3Cl)c2Cl)cc(C)c1CN1CC2(C1)CN(C(C)=O)C2 [US11760761, Compound E-2] | < 10 nM |
| COc1cc(-c2cccc(-c3cccc(-c4cnc(CN5CC6(CCC(=O)N6)C5)c(OC)n4)c3Cl)c2Cl)cc2c1[C@H](NCC(=O)O)CC2 (single isomer, unassigned) [US11760761, Compound B-2] | < 10 nM |
| COc1nc(-c2cccc(-c3cccc(-c4cc5c(c(OC)n4)[C@@H](N4CC(C(=O)O)C4)CC5)c3Cl)c2Cl)cnc1CN1CC(O)C1 [US11760761, Compound H-1] | < 10 nM |
